Measured values reported in patent US20030202977A1, “Treatment of osteoarthritis” (New York University, priority 1998, published 2003).
Marks after values point to notes of the source that are not given here.

Legend:
[1] = system: human osteoarthritis-affected cartilage; assay: Osteoarthritis-explant assay: release of inflammatory mediators from cartilage organ cultures; format: cell-based; settings: for Effect on PGE2 production / Effect on NO production/accumulation: osteoarthritis-affected cartilage; for Effect on NO production/accumulation: compared to control cartilage; for Nitrite / PGE2: per 100 mg cartilage, 72 hours post stimulation, mean ± S.D., n=3; for Nitrite: JBS5 0.5 μg/ml, αvβ3 Abs 5 μg/ml, L-NMMA 500 μM, IL-1β 1 ng/ml, RGD or RGE 1 mg/ml, control 1.2 ± 0.2; for PGE2: control 13.1 ± 0.2
Excerpt: ELISA kits for IL-1β, IL-6 and IL-8 were purchased from R and D (Minneapolis, Minn.). Cyclic RGD and RGE peptides were procured form Bachem Biosciences, Inc. (King of Prussia, Pa.). Anti-αvβ3 (JBS5) and anti-3 (LM609) were purchased from Chemicon International (Temecula, Calif.). Another anti-αvβ3 antibody (mAb13) was a generous gift from Dr. Yamada (NIH, Bethesda, Md.).
Cartilage slices were taken from the knees of patients who had been diagnosed with advanced osteoarthritis, ages 50-70 years, who were undergoing knee replacement surgery. Non-arthritic knee cartilage, normal control, ages 20-70 years, was obtained from patients with fractures or from accident victims after knee amputation.
Knee articular cartilage from osteoarthritis patients or normal individuals was cut into 3 mm discs, and 4-6 discs were placed (triplicate or quadruplicate) into a 24-well plate containing 2 ml F-12 medium+0.1% human albumin in the presence or absence of anti-αvβ3 (JBS5) or anti-3 (LM609) antibodies along with various modulators, as previously described by Amin et al (1995 and 1997).
(§1) NO production was measured by estimating the stable NO metabolite, nitrite, in condition medium by modified Griess reaction, Gilliam et al (1993). PGE2 was analyzed from supernatant by RIA, Amin et al (1997).
OA-affected cartilage was incubated in the medium with various modulators: 0.5 μg/ml of α5β1 (JBS5), 5 μg/ml αvβ3 Abs, L-NMMA (500 μM), IL-1β (1 ng/ml), 1 mg/ml of RGD or RGE. The accumulation of IL-1β, IL-8, IL-6, nitrite and PGE2 were estimated 72 hours post stimulation. Data represents±S.D. where n=3. The P values described are compared with the (control) unstimulated OA-affected cartilage. The data represent one of the two similar experiments.

[2] = system: chondrocytes; assay: Nitric oxide versus PGE2 production in chondrocytes; format: cell-based
[3] = target: α5β1 integrin of human cartilage chondrocytes (human) (UniProt P08648); assay: cell-based or functional assay
[4] = system: primary bovine chondrocytes; assay: NO and PGE2 production in primary bovine chondrocytes; format: cell-based
Description: Bovine chondrocytes were seeded in 24 well plates at a density of 0.5×10^6 cells/well in 2 ml medium. After 24 hours post-seeding, the cells were treated with either 50 ng of JBS5 monoclonal antibody or 1 ng/ml IL-1β alone and in the presence and absence of 0.5 μg/ml of sIL-1RII for 72 hours. NO and PGE2 were estimated as described in Materials and Methods. The data present one of the two similar experiments. Data represent mean±s.d. value. The p values described are compared with IL-l (*) or anti-α5β1 monoclonal antibody (**); *p≦0.01, **p≦0.01.
Bovine chondrocytes were seeded in 24 well plates and stimulated with 1 ng/ml Il-1β, 100 μg/ml LPS, IL-1β+LPS+TNFα and anti-α5β1 monoclonal antibody in the presence or absence of 5 μg/ml anti-αvβ3. The accumulation of NO and PGE2 was estimated at the end of 72 hours. The data represent one of the two similar experiments the data represent mean±s.d. value.
Bovine chondrocytes were isolated as previous described by Attur et al 1998. Briefly, cartilage slices from bovine cartilage were finely minced and digested sequentially with 0.2% testicular hyaluronidase for five minutes at 37° C., and 0.2% collagenase for 1-2 hours at 37° C. After being strained through sterile nylon mesh, the cells were centrifuged at 1200×g for ten minutes. The cell pellets were washed twice with Ham's F-12 medium, followed by resuspension and centrifuging at 1000×g for ten minutes. Finally, the pellets were suspended in complete F-12 medium before being plated to flasks.
as §1

Sequence of UniProt P08648 (P08648 42-1049, chain 1 of 2): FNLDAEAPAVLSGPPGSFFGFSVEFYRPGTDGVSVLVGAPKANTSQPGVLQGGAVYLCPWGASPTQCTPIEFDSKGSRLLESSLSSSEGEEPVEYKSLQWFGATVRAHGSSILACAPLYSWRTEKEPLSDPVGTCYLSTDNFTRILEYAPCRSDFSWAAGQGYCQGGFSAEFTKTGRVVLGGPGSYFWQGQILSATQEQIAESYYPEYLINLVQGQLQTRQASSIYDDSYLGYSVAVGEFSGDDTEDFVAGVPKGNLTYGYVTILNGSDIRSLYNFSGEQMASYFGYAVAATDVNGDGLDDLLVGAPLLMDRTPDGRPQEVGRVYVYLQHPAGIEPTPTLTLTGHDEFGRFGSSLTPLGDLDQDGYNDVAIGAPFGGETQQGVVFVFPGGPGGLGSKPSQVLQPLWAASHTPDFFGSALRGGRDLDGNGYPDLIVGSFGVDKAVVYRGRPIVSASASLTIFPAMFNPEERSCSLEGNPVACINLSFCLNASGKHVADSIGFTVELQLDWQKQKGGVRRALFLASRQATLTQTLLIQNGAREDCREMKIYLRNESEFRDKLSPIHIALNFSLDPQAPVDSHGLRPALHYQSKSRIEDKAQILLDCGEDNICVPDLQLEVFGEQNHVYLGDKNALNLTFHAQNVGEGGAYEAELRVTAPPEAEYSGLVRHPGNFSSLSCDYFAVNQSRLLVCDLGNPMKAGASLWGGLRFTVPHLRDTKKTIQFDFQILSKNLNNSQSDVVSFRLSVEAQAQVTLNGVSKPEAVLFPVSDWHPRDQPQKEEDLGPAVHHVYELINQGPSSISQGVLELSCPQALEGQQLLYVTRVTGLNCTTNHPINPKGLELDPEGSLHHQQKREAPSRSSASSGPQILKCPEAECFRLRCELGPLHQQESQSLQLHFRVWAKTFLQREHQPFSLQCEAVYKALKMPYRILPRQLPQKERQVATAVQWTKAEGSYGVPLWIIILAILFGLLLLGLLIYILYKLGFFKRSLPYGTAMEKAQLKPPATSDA
Sequence of UniProt P08648 (P05556 21-798, chain 2 of 2, further chain): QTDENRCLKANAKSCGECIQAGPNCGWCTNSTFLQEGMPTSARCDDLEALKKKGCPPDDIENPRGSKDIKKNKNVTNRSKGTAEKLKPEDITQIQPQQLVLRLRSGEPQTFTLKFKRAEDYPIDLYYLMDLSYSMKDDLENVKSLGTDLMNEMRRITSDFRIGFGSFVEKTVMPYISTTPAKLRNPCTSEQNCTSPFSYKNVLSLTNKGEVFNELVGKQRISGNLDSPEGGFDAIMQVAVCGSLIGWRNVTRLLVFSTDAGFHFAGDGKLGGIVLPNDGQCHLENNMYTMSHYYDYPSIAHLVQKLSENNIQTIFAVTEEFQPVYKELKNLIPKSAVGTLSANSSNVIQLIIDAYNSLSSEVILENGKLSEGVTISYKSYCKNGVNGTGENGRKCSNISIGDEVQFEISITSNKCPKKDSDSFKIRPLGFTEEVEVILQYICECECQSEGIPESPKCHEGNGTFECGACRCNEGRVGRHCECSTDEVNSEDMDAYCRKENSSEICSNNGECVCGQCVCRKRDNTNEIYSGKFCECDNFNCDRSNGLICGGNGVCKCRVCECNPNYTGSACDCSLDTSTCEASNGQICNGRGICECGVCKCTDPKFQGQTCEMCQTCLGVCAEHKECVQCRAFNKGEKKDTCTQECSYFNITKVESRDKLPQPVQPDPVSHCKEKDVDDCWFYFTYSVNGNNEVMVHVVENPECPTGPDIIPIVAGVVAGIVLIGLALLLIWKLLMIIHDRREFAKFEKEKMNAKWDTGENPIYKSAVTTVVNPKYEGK

CNC(=N)NCCC[C@H](N)C(=O)O [NMMA]
Effect on PGE2 production [1]: augmented
Effect on NO production/accumulation [1]: inhibition
Nitrite [1]: 0.8 ± 0.1^c μM
PGE2 [1]: 18.4 ± 0.8^c ng/ml

osteopontin: soluble secretory phosphoprotein, ligand of αvβ3
Effect on NO production/accumulation [1]: inhibited
Inhibition of PGE2 production relative to nitric oxide production [2]: equally inhibit

JBS5 monoclonal antibody
IL-1β, human OA-affected cartilage explants, 72 h, 0.5 µg/ml JBS5 (pg/ml per 100 mg cartilage) [3]: 87.6
IL-6, human OA-affected cartilage explants, 72 h, 0.5 µg/ml JBS5 (ng/ml per 100 mg cartilage) [3]: 17.7
IL-8, human OA-affected cartilage explants, 72 h, 0.5 µg/ml JBS5 (ng/ml per 100 mg cartilage) [3]: 17.7
Nitrite, human OA-affected cartilage explants, 72 h, 0.5 µg/ml JBS5 (µM per 100 mg cartilage) [3]: 12.7
PGE2, human OA-affected cartilage explants, 72 h, 0.5 µg/ml JBS5 (ng/ml per 100 mg cartilage) [3]: 19.1

IL-1β: cytokine used as positive control, 1 ng/ml
Effect on NO and PGE2 (inflammatory mediator) production, substance added as modulator ([4]; primary bovine chondrocytes): up-regulation
Effect on PGE2 production [1]: augmented
Effect on NO production/accumulation [1]: augmented
Nitrite [1]: 17.3 ± 2.4^a μM
PGE2 [1]: 29.6 ± 7.2^c ng/ml

B1: sIL-1RII: recombinant soluble type II IL-1 receptor cloned from human neutrophils, released from Sf9 insect cells (protein)
chain: FTLQPAAHTGAARSCRFRGRHYKREFRLEGEPVALRCPQVPYWLWASVSPRINLTWHKNDSARTVPGEEETRMWAQDGALWLLPALQEDSGTYVCTTRNASYCDKMSIELRVFENTDAFLPFISYPQILTLSTSGVLVCPDLSEFTRDKTDVKIQWYKDSLLLDKDNEKFLSVRGTTHLLVHDVALEDAGYYRCVLTFAHEGQQYNITRSIELRIKKKKEETIPVIISPLKTISASLGSRLTIPCKVFLGTGTPLTTMLWWTANDTHIESAYPGGRVTEGPRQEYSENNENYIEVPLIFDPVTREDLHMDFKCVVHNTLSFQTLRTTVKE
Effect on IL-1β induced accumulation of NO and PGE2 ([4]; preincubation of cells for fifteen minutes): blocked
Effect on anti-αvβ3 monoclonal antibody induced production of NO and PGE2 ([4]; preincubation of cells for fifteen minutes, inducer is JBS5): blocked
Effect on production of IL-1, nitric oxide, PGE2, IL-6, IL-8 and MMPs ([1]; human arthritis affected cartilage, ex vivo, in the presence or absence of IL-1): inhibits
Effect on IL-1β and JBS5 monoclonal antibody induced NO and PGE2 production ([1]; osteoarthritis cartilage explants, FIG. 1b): inhibited significantly
